The nature of this data set: Lethal dose in mice. To be noted: mouse, in vivo. It counts as toxicity.

One may read the LD50 as the dose expected to kill half of the subjects tested. A lower LD50 goes with a more toxic substance.

The sequence CISPLATIN yielded an LD50 of 10 mg/kg.

The values are drawn from ChEMBL document CHEMBL1133859, “Unprecedented sugar-dependent in vivo antitumor activity of carbohydrate-pendant cis-diamminedichloroplatinum(II) complexes” (Bioorg Med Chem Lett, 2001).
